From publication PMC12406203 (Journal of Medicinal Chemistry, 2025) come the findings set out here.

What all share (assay): KINOMEscan
Common to all, as to assay type: binding

For one experiment, the target named is T1, PKACα (Homo sapiens, UniProt P17612).
T1 construct: purchased Eurofins DiscoverX, LLC; host or cells: E. coli BL21-derived host (T7 phage) or HEK-293

The next experiment concerns the target T2, ZAP70 (Homo sapiens, UniProt P43403).
T2 construct: purchased Eurofins DiscoverX, LLC; host or cells: E. coli BL21-derived host (T7 phage) or HEK-293
T2 sequence (P43403 1-619): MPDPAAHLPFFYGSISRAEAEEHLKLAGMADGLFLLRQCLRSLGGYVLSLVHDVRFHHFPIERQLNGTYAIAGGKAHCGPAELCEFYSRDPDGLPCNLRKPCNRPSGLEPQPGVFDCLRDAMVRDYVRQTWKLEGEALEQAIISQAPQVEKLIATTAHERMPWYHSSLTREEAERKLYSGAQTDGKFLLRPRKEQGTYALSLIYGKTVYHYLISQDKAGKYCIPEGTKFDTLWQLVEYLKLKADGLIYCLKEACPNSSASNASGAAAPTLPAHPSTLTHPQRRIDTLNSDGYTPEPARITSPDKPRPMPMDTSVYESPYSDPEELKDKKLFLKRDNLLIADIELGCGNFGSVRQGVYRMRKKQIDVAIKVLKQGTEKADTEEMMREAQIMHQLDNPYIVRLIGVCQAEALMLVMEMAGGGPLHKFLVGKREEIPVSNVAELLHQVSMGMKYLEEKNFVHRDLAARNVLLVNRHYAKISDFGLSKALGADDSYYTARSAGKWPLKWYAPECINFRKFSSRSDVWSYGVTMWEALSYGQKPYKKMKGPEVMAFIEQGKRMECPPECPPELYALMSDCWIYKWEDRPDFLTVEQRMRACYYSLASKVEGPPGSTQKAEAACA

A further experiment has as its target T3, LCK (Homo sapiens, UniProt P06239).
T3 construct: purchased Eurofins DiscoverX, LLC; host or cells: E. coli (BL21-derived, T7 phage) or HEK-293

The next experiment has as its target T4, PLK3 (Homo sapiens, UniProt Q9H4B4).
T4 construct: purchased Eurofins DiscoverX, LLC; host or cells: E. coli BL21-derived host (T7 phage) or HEK-293

In the next experiment the target is T5, ERBB4 (Homo sapiens, UniProt Q15303).
T5 construct: purchased Eurofins DiscoverX, LLC; host or cells: E. coli (T7 phage) or HEK-293

Another experiment has as its target T6, PCTK1 (Homo sapiens, UniProt Q00536).
T6 construct: purchased Eurofins DiscoverX, LLC; host or cells: E. coli BL21-derived host (T7 phage) or HEK-293

For the next experiment, the target named is T7, CDK11 (Homo sapiens, UniProt Q9BWU1).
T7 construct: purchased Eurofins DiscoverX, LLC; host or cells: E. coli BL21-derived (T7 phage) or HEK-293

A further experiment concerns the target T8, EGFR (Homo sapiens, UniProt P00533).
T8 construct: purchased Eurofins DiscoverX, LLC; host or cells: E. coli (T7 phage) or HEK-293

The next experiment concerns the target T9, MAP3K4 (Homo sapiens, UniProt Q9Y6R4).
T9 construct: purchased Eurofins DiscoverX, LLC; host or cells: E. coli (BL21-derived, T7 phage) or HEK-293

The target in the next experiment is T10, LKB1 (Homo sapiens, UniProt Q15831).
T10 construct: purchased Eurofins DiscoverX, LLC; host or cells: E. coli (BL21-derived, T7 phage) or HEK-293
T10 sequence (Q15831 1-433): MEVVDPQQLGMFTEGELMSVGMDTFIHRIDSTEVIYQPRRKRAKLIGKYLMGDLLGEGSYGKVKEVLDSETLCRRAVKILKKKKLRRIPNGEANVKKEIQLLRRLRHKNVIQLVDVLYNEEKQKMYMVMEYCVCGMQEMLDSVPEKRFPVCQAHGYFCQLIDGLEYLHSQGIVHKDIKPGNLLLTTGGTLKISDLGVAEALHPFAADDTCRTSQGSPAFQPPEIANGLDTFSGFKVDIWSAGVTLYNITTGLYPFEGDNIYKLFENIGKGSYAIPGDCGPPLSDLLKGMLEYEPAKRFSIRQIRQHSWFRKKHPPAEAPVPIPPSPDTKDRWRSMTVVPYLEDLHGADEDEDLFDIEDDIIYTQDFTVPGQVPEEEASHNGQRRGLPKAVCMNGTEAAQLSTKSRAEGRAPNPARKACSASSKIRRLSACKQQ

The target in a further experiment is T11, MAPKAPK5 (Homo sapiens, UniProt Q8IW41).
T11 construct: purchased Eurofins DiscoverX, LLC; host or cells: E. coli (BL21-derived, T7 phage) or HEK-293
T11 sequence (Q8IW41 1-473): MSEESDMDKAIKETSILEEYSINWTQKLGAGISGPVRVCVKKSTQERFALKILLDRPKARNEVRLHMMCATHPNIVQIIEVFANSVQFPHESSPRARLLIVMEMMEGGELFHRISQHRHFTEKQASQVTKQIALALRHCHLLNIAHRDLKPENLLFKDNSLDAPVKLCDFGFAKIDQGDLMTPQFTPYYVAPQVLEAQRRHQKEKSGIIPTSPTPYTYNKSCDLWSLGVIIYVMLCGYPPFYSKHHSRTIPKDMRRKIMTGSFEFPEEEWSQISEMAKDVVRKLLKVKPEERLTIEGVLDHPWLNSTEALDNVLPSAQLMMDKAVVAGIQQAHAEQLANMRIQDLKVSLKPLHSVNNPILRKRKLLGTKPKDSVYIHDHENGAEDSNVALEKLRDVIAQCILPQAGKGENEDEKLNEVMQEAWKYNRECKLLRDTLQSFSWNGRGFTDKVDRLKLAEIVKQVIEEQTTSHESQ

T8 sequence (P00533 25-1210): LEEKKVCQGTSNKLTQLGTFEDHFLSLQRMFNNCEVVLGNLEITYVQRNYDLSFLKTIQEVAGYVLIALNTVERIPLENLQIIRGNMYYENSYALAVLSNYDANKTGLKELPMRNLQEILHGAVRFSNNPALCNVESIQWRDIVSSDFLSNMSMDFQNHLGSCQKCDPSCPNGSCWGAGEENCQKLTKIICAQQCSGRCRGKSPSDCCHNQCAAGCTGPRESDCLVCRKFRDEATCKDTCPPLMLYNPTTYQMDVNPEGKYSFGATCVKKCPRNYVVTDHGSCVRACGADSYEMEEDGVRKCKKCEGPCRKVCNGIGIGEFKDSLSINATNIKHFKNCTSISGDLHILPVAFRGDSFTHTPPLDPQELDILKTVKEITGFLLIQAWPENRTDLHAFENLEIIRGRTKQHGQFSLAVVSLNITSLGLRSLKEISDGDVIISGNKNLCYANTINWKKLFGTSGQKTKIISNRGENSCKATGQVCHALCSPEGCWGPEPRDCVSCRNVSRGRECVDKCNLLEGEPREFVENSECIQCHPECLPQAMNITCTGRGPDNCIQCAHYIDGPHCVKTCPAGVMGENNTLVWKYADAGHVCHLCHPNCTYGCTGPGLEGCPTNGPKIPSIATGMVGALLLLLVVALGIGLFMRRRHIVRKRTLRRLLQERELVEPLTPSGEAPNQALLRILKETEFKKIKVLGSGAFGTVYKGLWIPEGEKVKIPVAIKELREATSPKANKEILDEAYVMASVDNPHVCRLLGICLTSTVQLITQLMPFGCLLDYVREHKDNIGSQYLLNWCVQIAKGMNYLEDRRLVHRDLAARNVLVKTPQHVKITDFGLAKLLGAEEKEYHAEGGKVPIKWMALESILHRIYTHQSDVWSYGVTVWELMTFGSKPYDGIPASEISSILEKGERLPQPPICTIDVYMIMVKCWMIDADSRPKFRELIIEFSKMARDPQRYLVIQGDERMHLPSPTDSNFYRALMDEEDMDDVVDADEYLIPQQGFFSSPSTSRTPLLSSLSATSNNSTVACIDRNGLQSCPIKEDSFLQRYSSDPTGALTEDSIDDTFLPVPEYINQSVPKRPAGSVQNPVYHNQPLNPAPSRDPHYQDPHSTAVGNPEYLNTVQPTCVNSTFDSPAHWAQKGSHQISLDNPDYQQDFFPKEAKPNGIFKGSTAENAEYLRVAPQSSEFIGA
T5 sequence (Q15303 26-1308): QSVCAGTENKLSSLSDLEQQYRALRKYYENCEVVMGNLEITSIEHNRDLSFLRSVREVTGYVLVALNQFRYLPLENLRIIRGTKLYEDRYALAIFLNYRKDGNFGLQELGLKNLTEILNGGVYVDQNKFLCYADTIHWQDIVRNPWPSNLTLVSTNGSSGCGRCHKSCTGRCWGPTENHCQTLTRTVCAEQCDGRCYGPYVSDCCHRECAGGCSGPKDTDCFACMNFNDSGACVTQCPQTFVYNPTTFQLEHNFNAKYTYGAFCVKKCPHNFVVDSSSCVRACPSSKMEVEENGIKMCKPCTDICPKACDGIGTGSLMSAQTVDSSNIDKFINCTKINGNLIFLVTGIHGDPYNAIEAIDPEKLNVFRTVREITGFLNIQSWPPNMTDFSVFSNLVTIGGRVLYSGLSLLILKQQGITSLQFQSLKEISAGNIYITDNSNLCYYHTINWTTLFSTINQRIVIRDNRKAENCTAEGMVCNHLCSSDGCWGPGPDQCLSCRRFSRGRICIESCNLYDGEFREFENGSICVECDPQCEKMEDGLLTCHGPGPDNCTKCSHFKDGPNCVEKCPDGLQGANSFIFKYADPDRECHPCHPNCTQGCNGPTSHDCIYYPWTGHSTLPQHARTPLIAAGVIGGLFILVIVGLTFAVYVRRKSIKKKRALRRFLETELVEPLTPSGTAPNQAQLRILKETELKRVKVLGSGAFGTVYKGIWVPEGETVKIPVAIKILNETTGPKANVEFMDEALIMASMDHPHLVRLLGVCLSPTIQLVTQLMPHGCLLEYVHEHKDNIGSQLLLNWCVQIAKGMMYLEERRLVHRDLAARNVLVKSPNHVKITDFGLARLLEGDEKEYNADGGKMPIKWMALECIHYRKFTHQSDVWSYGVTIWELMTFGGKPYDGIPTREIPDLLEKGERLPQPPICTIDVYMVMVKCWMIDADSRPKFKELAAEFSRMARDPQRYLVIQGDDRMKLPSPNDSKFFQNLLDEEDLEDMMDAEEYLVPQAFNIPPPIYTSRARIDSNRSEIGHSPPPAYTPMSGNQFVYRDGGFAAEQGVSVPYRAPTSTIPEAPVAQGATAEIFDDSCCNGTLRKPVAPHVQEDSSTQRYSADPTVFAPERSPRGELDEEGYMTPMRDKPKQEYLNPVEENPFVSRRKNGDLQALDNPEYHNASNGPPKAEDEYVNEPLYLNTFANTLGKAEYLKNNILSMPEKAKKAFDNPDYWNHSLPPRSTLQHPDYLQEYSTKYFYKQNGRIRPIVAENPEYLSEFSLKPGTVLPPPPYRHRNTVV
T9 sequence (Q9Y6R4 whole entry): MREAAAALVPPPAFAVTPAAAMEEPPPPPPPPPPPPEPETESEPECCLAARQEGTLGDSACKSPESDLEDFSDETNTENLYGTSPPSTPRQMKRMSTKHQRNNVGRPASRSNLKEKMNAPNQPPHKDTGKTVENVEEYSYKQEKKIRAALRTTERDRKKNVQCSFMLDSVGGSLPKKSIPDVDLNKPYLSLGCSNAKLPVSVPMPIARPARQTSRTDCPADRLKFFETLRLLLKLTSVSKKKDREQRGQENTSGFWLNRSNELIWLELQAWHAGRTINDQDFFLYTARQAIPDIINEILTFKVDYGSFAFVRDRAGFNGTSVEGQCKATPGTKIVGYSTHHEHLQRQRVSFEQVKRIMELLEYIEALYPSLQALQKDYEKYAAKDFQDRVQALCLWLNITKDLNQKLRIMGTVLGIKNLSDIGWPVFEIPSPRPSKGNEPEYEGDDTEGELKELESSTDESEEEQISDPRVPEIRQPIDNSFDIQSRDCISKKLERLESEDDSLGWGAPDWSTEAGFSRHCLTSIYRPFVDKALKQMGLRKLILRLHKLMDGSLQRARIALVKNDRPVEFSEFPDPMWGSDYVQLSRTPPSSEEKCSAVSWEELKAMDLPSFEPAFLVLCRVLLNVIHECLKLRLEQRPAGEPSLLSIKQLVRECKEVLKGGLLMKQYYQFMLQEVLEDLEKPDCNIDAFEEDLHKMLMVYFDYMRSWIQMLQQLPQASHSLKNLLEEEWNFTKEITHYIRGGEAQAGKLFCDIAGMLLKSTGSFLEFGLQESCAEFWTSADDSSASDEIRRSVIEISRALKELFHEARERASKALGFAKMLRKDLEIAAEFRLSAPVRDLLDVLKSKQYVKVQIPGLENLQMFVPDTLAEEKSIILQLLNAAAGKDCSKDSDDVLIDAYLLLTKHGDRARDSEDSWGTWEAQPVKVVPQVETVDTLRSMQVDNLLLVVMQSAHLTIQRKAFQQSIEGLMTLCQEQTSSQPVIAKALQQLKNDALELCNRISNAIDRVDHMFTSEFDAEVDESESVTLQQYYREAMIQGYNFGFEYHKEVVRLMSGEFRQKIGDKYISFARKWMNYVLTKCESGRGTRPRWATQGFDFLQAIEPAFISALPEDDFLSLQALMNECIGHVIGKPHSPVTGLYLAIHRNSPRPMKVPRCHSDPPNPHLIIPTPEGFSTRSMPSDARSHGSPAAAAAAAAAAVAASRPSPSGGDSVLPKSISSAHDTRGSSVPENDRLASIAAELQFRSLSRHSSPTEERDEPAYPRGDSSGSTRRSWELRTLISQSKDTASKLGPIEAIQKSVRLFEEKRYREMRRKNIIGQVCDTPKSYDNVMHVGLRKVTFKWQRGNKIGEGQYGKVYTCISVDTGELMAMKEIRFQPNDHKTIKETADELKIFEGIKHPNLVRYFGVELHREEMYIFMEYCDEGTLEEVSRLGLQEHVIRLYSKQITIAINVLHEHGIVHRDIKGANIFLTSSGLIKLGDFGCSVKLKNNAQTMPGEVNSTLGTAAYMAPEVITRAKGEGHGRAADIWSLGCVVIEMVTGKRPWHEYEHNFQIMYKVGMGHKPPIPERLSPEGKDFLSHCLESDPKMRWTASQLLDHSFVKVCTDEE
T3 sequence (P06239 whole entry): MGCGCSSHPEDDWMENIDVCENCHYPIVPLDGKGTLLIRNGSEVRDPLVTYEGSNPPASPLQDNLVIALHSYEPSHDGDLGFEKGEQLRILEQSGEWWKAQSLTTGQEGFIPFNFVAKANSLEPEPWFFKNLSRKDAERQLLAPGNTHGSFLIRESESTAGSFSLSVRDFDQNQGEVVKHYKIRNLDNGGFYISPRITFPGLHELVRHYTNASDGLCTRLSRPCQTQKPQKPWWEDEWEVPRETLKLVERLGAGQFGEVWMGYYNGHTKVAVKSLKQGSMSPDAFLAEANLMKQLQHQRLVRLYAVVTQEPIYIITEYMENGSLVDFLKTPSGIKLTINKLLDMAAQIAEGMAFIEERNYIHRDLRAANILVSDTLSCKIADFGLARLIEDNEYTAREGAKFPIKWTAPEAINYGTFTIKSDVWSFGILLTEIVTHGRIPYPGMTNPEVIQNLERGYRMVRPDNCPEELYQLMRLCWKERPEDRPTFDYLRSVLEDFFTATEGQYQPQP
T7 sequence (Q9BWU1 whole entry): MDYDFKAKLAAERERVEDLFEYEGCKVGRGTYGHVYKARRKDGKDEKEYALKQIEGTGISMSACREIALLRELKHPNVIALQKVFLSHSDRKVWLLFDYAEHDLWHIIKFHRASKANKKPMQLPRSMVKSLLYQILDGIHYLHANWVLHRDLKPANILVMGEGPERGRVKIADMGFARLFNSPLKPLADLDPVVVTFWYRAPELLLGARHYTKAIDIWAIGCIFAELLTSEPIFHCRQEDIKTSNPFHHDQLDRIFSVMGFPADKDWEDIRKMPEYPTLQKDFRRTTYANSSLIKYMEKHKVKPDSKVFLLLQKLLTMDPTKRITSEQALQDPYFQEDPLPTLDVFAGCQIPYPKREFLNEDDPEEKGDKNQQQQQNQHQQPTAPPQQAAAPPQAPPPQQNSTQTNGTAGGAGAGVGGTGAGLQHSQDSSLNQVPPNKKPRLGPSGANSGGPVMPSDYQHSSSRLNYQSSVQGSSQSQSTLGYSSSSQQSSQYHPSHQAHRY

As for `CC(C)Cn1ncc2cc(Cc3ccc(F)cc3F)c(C(=O)NCCN(C)C)cc21` [Compound 94, 5-(2,4-Difluorobenzyl)-N-(2-(dimethylamino)ethyl)-1-isobutyl-1H-indazole-6-carboxamide], the “RA @ 1000nM” value at PKACα was found to be 100%; on ZAP70, 100%; on LCK it was 100%; at PLK3, 100%; at ERBB4 it was 85%; on PCTK1 it was 96%. Moreover, the “RA @ 1000nM” value on CDK11 came out at 100%; on EGFR it was 98%; at MAP3K4, 49%; at LKB1 it was 100%; on MAPKAPK5, 100%. In addition, the “RA @ 10000nM” value on PKACα worked out at 96%; on ZAP70, 79%; on LCK, 97%; on PLK3, 97%; on ERBB4 it was 83%; on PCTK1 it was 92%. The “RA @ 10000nM” value at CDK11 was determined as 89%; at EGFR, 69%; at MAP3K4 it was 100%; on LKB1, 96%; on MAPKAPK5, 100%.

`CN(C)CCNC(=O)c1cc2c(cnn2CC2CCCCC2)cc1Cc1ccc(F)cc1F` [Compound 95, 1-(Cyclohexylmethyl)-5-(2,4-difluorobenzyl)-N-(2-(dimethylamino)ethyl)-1H-indazole-6-carboxamide]: the “RA @ 1000nM” value was 100% on PKACα; 100% at ZAP70; 94% on LCK; 88% at PLK3; 93% on ERBB4; 87% on PCTK1. Moreover, the “RA @ 1000nM” value at CDK11 was determined as 92%; on EGFR it was 100%; at MAP3K4, 100%; on LKB1 it was 100%; on MAPKAPK5 it was 100%. Further, the “RA @ 10000nM” value was found to be 94% on PKACα; 100% at ZAP70; 100% at LCK; 100% on PLK3; 81% at ERBB4; 79% at PCTK1. In addition, the “RA @ 10000nM” value on CDK11 came to 100%; on EGFR, 100%; on MAP3K4, 60%; at LKB1, 86%; at MAPKAPK5 it was 100%.
